Experiments:
[1] = molecular target: T1, RARγ (Homo sapiens, UniProt P13631); assay: displacement assay to measure agonist binding affinity; settings: read-out: Binding Affinities for RARγ
T1 sequence (P13631 1-454): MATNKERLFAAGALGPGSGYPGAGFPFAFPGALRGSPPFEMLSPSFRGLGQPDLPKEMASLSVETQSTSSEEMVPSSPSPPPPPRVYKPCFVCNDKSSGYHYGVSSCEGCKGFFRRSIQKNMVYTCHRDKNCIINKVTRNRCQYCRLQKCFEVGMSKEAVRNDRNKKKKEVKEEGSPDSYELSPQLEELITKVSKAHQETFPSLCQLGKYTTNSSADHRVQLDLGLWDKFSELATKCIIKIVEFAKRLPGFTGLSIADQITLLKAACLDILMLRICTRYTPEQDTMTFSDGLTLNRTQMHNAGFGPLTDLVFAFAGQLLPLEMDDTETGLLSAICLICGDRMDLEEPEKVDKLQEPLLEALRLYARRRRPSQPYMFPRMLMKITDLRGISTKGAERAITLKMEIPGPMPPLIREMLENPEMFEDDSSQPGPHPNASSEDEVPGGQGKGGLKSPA

[2] = molecular target: T2, RARβ (Homo sapiens, UniProt P10826); assay: as above; settings: read-out: Binding Affinities for RARβ
T2 sequence (P10826 1-455): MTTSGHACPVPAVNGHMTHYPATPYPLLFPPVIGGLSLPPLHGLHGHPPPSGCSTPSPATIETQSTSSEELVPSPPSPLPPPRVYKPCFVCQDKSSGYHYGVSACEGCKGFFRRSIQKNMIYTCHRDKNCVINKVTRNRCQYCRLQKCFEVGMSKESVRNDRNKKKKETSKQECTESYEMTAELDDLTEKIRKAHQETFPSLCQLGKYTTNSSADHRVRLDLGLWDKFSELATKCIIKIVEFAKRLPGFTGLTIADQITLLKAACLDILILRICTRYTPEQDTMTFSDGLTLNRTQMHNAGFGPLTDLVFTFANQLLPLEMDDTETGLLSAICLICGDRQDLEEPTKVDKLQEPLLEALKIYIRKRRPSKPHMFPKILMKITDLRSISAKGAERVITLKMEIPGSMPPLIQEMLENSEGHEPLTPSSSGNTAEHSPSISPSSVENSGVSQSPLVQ

[3] = system: experimental autoimmune encephalomyelitis (EAE); assay: experimental autoimmune encephalomyelitis (EAE) mouse model; assay type: in vivo, SJL mice
Protocol: To determine if RARα selective agonists reduce symptoms associated with an autoimmune disorder, the effects of a RARα selective agonist was evaluated in an experimental autoimmune encephalomyelitis (EAE) mouse model. EAE is an inflammatory disease of the central nervous system widely used as a model of multiple sclerosis in which Th17 cells are the principle mediators of the symptoms observed. […] In one set of experiments, the effects of prophylactic dosing were assessed. Mice were administered 1 mg/kg of compound 5183 intraperitoneally every other day starting day 1 after EAE induction. In a second set of experiments, the effects of therapeutic dosing were assessed. Mice were administered 2 mg/kg of compound 5183 intraperitoneally every other day starting day 7 after EAE induction. Clinical parameters of disease (loss of bodyweight and paralysis/paresis) were monitored on a daily basis.

[4] = system: CD4+ T cells; assay: in vivo FoxP3 expression in CD4+ T cells of blood and spleen; parameters: species or system mouse; settings: mice, 100 μg every other day for 10 days
Protocol: To expand on the finding above, the in vivo effects of a RARα selective agonist on T cell differentiation was evaluated in a mouse model. Mice were treated 100 μg of compound 5183 (a RARα agonist) or an equivalent volume of DMSO (vehicle control) every other day for 10 days. Lymphocytes from the blood and spleen were then isolated and FoxP3 expression in CD4^+ T cells was assessed.

[5] = system: Naive CD4+ CD25− FoxP3− cells; assay: Treg cell differentiation (FoxP3-GFP expression by flow cytometry) in vitro; assay type: cell-based, mouse; settings: αCD3, IL-2 and TGF-β
Protocol: Purified CD4+ CD25^− FoxP3^− cells were cultured in media with the specified concentration of each RAR agonist and analyzed by flow cytometry for FoxP3 (A), α4β7 (B), and CCR9 (C) expression in total CD4 T cells. FoxP3 results are representative of 3 independent experiments. CCR9 and α4β7 results are representative of multiple experiments.
It is important to determine which of the RAR (RARα, RARβ, RARγ) signaling pathways is important in the induction of Foxp3 expression. To determine this, naive CD4^+ CD25^− FoxP3^− cells were purified from a Foxp3-GFP mouse using flow cytometry by sorting and isolating based upon a GFP^− phenotype. These cells were activated polyclonally with αCD3 in vitro in the presence of IL-2 and TGF-β. To identify the RAR involved in RA-induced, the cultured cells were incubated with RAR selective agonists. The cultured cells were then score for the frequency of GFP+ (Foxp3+). With respect to the use of selective agonists, only the RARα agonist exerted significant impact on the expression of Foxp3 inducing nearly 100% Foxp3+ T cells, with enhancement on the expression of α4β7 and CCR9 (gut homing receptors) (FIG. 1). The RARγ and RARβ agonists were without effect.
(§1) To determine whether a RARα selective agonist could affect T cell differentiation, T cells were incubated with a RARα selective agonist to determine its effect on Foxp3 expression evaluated. Naive CD4^+ CD25^− FoxP3^− cells were purified from a Foxp3-GFP mouse using flow cytometry by sorting and isolating based upon a GFP^− phenotype. These cells were activated polyclonally with αCD3 in vitro in the presence of IL-2 and TGF-β. These cells were then cultured in media with various concentrations of compound 5183 (a RARα selective agonist) and the expression of FoxP3-GFP was analyzed by flow cytometry. The RARα selective agonist compound 5183 enhanced differentiation of immunosuppressive Treg cells and inhibited differentiation of inflammatory TH17 cells from Naïve T cells in vitro (Table 2).

[6] = molecular target: T3, RARα (Homo sapiens, UniProt P10276); assay: displacement assay to measure agonist binding affinity; settings: read-out: Binding Affinities for RARα
T3 sequence (P10276 1-462): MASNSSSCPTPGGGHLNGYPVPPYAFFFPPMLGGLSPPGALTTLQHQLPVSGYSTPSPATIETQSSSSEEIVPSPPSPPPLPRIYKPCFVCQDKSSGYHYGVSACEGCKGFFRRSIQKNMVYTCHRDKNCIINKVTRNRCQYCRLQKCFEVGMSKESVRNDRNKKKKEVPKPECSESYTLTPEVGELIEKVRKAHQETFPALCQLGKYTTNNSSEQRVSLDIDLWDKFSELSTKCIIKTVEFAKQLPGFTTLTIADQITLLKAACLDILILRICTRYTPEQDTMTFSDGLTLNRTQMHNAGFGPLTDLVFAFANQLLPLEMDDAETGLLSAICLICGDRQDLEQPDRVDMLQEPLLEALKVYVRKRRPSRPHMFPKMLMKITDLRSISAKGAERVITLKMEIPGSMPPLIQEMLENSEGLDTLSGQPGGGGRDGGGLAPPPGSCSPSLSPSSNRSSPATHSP

[7] = system: RARα, RARβ, and RARγ; assay: transactivation assay to measure agonist activity; assay type: cell-based; settings: FIG. 2
Text: Other RARα selective agonists useful as a compound disclosed herein are described in, e.g., Teng, et al., Aryl or Heteroaryl Amides of Tetrahydronaphthalene, Chroman, Thiochroman and 1,2,3,4-Tetrahydroquinoline Carboxylic Acids, Having an Electron Withdrawing Substituent in the Aromatic Or Heteroaromatic Moiety, Having Retinoid-Like Biological Activity, U.S. Pat. No. 5,856,490; Teng, et al., Methods of Treatment with Compounds Having RARα Receptor Specific or Selective Activity, U.S. Pat. No. 5,965,606; and Nehma, et al., Treatment of Tumors with RARα Selective Retinoid Compounds in Combination with Other Anti-Tumor Agents, U.S. Pat. No. 6,387,950; each of which is incorporated by reference in its entirety. […] Assays by which a compound can be tested and established whether or not it is an RARα selective agonist, are known in the art and are described in numerous prior art publications and patents.

[8] = system: Naïve T cells; assay: Th17 cell differentiation from Naïve T cells in vitro; assay type: cell-based, mouse
Protocol: as §1

Kd [1]: > 10 µM | Kd [2]: > 10 µM | Kd [6]: 0.0047 µM
SMILES: CC1(C)CCC(C)(C)c2c1cc(C(=O)Nc1cc(F)c(C(=O)O)c(F)c1)c(O)c2Cl [Compound 5183]
symptoms associated with EAE (loss of bodyweight and paralysis/paresis) ([3]; prophylactic dosing: 1 mg/kg intraperitoneally every other day starting day 1 after EAE induction): reduced symptoms associated with EAE | symptoms associated with EAE (loss of bodyweight and paralysis/paresis) ([3]; therapeutic dosing: 2 mg/kg intraperitoneally every other day starting day 7 after EAE induction): reduced symptoms associated with EAE | Foxp3+ Expression (%) ([4]; Blood): 4.3% | Foxp3+ Expression (%) ([4]; Spleen): 25% | Treg cell Percent Differentiation (%) ([5]; 0.1 nM): 26% | Treg cell Percent Differentiation (%) ([5]; 1 nM): 55% | Treg cell Percent Differentiation (%) ([5]; 10 nM): 90% | activation of transcription from RARα, RARβ, and RARγ [7]: specifically activates RARα | Th17 cell Percent Differentiation (%) ([8]; 0.1 nM): 32% | Th17 cell Percent Differentiation (%) ([8]; 1 nM): 21% | Th17 cell Percent Differentiation (%) ([8]; 10 nM): 11% | Th17 cell Percent Differentiation (%) ([8]; 100 nM): 5%

Source: patent publication US20120238623A1, “Inflammation and Autoimmune Disorder Treatment using RARa Selective Agonists” (priority 2011, published 2012)
